From ChEMBL document CHEMBL1139311, “Synthesis of biflavones having a 6-O-7'' linkage and effects on cyclooxygenase-2 and inducible nitric oxide synthase” (Bioorg Med Chem Lett, 2009) come the findings set out here.

Common to all, as to assay type: cell-based
Assay [1] has as its target T1, Nitric oxide synthase, inducible (Mus musculus) (UniProt P29477).
T1 sequence (whole entry): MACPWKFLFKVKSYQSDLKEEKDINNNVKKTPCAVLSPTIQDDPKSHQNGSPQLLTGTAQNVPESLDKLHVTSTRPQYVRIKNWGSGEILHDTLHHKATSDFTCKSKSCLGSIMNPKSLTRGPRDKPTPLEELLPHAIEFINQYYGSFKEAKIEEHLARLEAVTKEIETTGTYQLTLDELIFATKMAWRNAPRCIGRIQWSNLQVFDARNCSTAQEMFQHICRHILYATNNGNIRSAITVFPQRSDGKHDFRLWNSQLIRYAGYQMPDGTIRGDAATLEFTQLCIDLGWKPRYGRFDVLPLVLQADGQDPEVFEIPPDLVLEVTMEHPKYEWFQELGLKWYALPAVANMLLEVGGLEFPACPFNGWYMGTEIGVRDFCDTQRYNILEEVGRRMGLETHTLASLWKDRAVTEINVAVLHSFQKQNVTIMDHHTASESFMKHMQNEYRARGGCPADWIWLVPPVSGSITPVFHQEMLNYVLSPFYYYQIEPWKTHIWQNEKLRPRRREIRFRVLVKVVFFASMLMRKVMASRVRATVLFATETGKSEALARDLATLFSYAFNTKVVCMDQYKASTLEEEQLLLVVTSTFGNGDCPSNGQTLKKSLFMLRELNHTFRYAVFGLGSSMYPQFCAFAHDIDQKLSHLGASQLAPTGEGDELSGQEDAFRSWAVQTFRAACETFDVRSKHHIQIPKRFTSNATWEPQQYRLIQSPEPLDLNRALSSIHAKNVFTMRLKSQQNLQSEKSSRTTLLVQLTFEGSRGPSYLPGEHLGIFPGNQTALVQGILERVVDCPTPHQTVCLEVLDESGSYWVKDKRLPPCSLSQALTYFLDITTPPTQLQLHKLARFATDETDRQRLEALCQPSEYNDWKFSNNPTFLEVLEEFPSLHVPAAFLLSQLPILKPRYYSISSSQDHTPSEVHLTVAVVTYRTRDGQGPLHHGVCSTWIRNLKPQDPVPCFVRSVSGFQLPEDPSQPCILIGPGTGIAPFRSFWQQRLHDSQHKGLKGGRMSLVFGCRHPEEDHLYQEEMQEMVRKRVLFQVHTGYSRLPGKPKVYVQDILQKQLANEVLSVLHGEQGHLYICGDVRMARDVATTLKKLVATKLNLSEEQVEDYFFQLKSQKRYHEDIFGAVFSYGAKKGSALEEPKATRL
Nature of the assay: Inhibition of iNOS-mediated NO production in LPS-stimulated mouse RAW264.7 cells at […].

Assay [2] has as its target T2, Prostaglandin G/H synthase 2 (Mus musculus, UniProt Q05769).
T2 sequence (Q05769 whole entry): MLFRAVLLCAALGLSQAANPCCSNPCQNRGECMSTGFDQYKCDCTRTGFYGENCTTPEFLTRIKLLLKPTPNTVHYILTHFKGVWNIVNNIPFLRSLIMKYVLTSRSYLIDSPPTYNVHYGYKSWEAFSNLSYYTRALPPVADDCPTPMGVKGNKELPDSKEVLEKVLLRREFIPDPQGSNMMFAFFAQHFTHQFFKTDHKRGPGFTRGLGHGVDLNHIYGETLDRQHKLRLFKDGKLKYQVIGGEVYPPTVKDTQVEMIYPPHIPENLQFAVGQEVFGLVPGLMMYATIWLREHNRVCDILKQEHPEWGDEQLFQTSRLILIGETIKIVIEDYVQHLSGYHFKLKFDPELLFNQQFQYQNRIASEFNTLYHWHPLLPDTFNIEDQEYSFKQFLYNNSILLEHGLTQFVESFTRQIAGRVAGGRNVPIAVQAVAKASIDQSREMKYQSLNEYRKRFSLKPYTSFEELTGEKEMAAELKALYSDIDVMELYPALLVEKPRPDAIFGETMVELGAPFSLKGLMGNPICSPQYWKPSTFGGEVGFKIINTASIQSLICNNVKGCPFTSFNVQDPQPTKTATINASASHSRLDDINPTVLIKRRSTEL
Nature of the assay: Inhibition of COX2-mediated PGE2 production in LPS-stimulated mouse RAW264.7 cells by ELISA.

Assay [3] deals with T3, Nitric oxide synthase, inducible (Mus musculus, UniProt P29477).
T3 sequence (P29477 whole entry): T1 sequence (whole entry)
Nature of the assay: Inhibition of iNOS-mediated NO production in LPS-stimulated mouse RAW264.7 cells by Griess method.

Structures are written as SMILES. Where only a bound is given, the exact number is not on record here.

Turning to `CC1CCN=C(N)S1` (stereo not drawn), the inhibition in assay [1] was 92.5%. Regarding `O=c1cc(-c2ccccc2)oc2cc(Oc3ccc4oc(-c5ccccc5O)cc(=O)c4c3)ccc12`, the half-inhibitory concentration (IC50) in assay [2] was > 50 µM. As to `O=c1cc(-c2ccccc2)oc2cc(Oc3ccc4oc(-c5ccc(O)cc5O)cc(=O)c4c3)ccc12`, the IC50 in assay [2] is > 50 µM.

`COc1ccccc1-c1cc(=O)c2cc(Oc3ccc4c(=O)cc(-c5ccccc5)oc4c3)ccc2o1`: the IC50 in assay [2] is > 50 µM. Regarding `O=c1cc(-c2ccc(O)cc2O)oc2cc(Oc3ccc4oc(-c5ccc(O)cc5O)cc(=O)c4c3)ccc12`, the IC50 in assay [2] and in assay [3] was 10 µM each time.

In assay [2], `COc1ccc(-c2cc(=O)c3cc(Oc4ccc5c(=O)cc(-c6ccccc6)oc5c4)ccc3o2)c(OC)c1` displayed an IC50 of 2 µM. As to `O=c1cc(-c2ccccc2)oc2cc(Oc3ccc4oc(-c5ccccc5)cc(=O)c4c3)ccc12`, the IC50 was < 2 µM in assay [2] and > 50 µM in assay [3]. Take `COc1ccc(-c2cc(=O)c3ccc(Oc4ccc5oc(-c6ccc(OC)cc6OC)cc(=O)c5c4)cc3o2)cc1`: the IC50 in assay [2] and in assay [3] was > 50 µM each time. For `O=c1cc(-c2ccc(O)cc2)oc2cc(Oc3ccc4oc(-c5ccc(O)cc5)cc(=O)c4c3)ccc12`, the IC50 in assay [2] is > 50 µM. Turning to `COc1ccc(-c2cc(=O)c3cc(Oc4ccc5c(=O)cc(-c6ccc(OC)cc6OC)oc5c4)ccc3o2)cc1`, the IC50 in assay [2] and in assay [3] was > 50 µM throughout. Turning to `O=c1cc(-c2ccc(O)cc2)oc2cc(Oc3ccc4oc(-c5ccccc5O)cc(=O)c4c3)ccc12`, the IC50 in assay [2] is > 50 µM; in assay [3], 10 µM. For `O=c1cc(-c2ccc(O)cc2)oc2ccc(Oc3ccc4c(=O)cc(-c5ccc(O)cc5O)oc4c3)cc12`, in that order: > 50 µM and 50 µM. In turn, `COc1ccc(-c2cc(=O)c3cc(Oc4ccc5c(=O)cc(-c6ccccc6)oc5c4)ccc3o2)cc1` showed an IC50 in assay [2] of 2 µM.

Regarding `O=c1cc(-c2ccc(O)cc2)oc2cc(Oc3ccc4oc(-c5ccc(O)cc5O)cc(=O)c4c3)ccc12`, the IC50 in assay [2] and in assay [3] was > 50 µM in each case.

In the case of `COc1ccc(-c2cc(=O)c3ccc(Oc4ccc5oc(-c6ccc(OC)cc6OC)cc(=O)c5c4)cc3o2)c(OC)c1`, the IC50 in assay [2] is 50 µM; in assay [3], > 50 µM.
